# Target: T1, recombinant human AKR1C3 (Aldo-keto reductase family 1 member C3) (Homo sapiens, UniProt P42330)
# T1 construct: GST (cleaved yes); made in house; host or cells: E. coli
# T1 sequence (P42330 1-323): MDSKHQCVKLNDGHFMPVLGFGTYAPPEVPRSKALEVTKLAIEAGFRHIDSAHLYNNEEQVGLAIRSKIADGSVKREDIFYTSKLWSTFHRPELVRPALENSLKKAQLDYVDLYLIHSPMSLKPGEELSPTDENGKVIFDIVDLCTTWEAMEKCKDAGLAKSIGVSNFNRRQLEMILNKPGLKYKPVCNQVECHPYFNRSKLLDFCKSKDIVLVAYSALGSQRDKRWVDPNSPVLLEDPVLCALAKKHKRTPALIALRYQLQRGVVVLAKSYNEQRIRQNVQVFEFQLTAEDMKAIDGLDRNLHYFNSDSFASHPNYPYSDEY
# Assay: In Vitro Assay 1: AKR1C3-inhibitory activity (Coumberone to Coumberol fluorescence assay)
# Assay type: biochemical
# Details: recombinant enzyme, Coumberone 0.3 μM, NADPH 10 μM, 15 min pre-incubation, 4-parameter fit; average or median values
# Method: In Vitro Assay 1: AKR1C3-Inhibitory Activity
# The AKR1C3-inhibitory activity of the substances of the present invention was measured in the AKR1C3 assay described in the paragraphs below.
# Essentially, the enzyme activity is measured by quantification of the Coumberol from Coumberone (Halim, M., Yee, D. J., and Sames, D., J. AM. CHEM. SOC. 130, 14123-14128 (2008) and Yee, D. J., Balsanek, V., Bauman, D. R., Penning, T. M., and Sames, D., Proc. Natl. Acad. Sci. USA 103, 13304-13309 (2006)). In this test, the increase of the highly fluorescent Coumberol by NADPH- (nicotinamide adenine dinucleotide phosphate)-dependent reduction of the non-fluorescent Coumberone by AKR1C3 can be determined.
# The enzyme used was recombinant human AKR1C3 (Aldo-keto reductase family 1 member C3) (GenBank Accession No. NM_003739). This was expressed in E. coli as GST (glutathione S transferase) fusion protein and purified by glutathione Sepharose affinity chromatography. The GST was removed by digestion with thrombin and subsequent size exclusion chromatography (Dufort, I., Rheault, P., Huang, X F., Soucy, P., and Luu-The, V., Endocrinology 140, 568-574 (1999)).
# For the assay, 50 nl of a 100-fold concentrated solution of the test substance in DMSO were pipetted into a black low-volume 384-well microtiter plate (Greiner Bio-One, Frickenhausen, Germany), 2.5 μl of a solution of AKR1C3 in assay buffer [50 mM potassium phosphate buffer pH 7, 1 mM DTT, 0.0022% (w/v) Pluronic F-127, 0.01% BSA (w/v) and protease inhibitor cocktail (Complete, EDTA-free Protease Inhibitor Cocktail from Roche)] were added and the mixture was incubated for 15 min to allow pre-binding of the substances to the enzyme prior to the enzyme reaction. The enzyme reaction was then started by addition of 2.5 μl of a solution of NADPH (20 μM→final concentration in 5 μl of assay volume is 10 μM) and Coumberone (0.6 μM→final concentration in 5 μl of assay volume is 0.3 μM) in assay buffer, and the resulting mixture was incubated at […] for the reaction time of typically 90 min. The concentration of the AKR1C3 and the reaction time was adapted to the respective activity of the enzyme preparation and adjusted such that the assay was carried out in the linear range.
# Typical AKR1C3 concentrations were in the region of 1 nM. The reaction was stopped by addition of 2.5 μl of a stop solution consisting of the inhibitor EM-1404 [F. Labrie et al. U.S. Pat. No. 6,541,463, 2003] (3 μM→final concentration in 7.5 μl of assay volume is 1 μM). The fluorescence of the Coumberole was then measured at 520 nm (excitation at 380 nm) using a suitable measuring instrument (Pherastar from BMG Labtechnologies). The intensity of the fluorescence was used as a measure of the amount of Coumberole formed and thus of the enzyme activity of AKR1C3. The data were normalized (enzyme reaction without inhibitor—0% inhibition; all other assay components, but no enzyme=100% inhibition).
row,SMILES,IC50 [nM]
1,"COc1ccc(S(=O)(=O)N2[C@@H]3CC[C@H]2[C@@H]2CN(C(=O)c4cnn[nH]4)C[C@@H]23)cc1OC [Example 41, {(3aR,4R,7S,7aS)-8-[(3,4-dimethoxyphenyl)sulfonyl]octahydro-2H-4,7-epiminoisoindol-2-yl}(1H-1,2,3-triazol-5-yl)methanone]",731
2,"O=C(c1cnn[nH]1)N1C[C@@H]2[C@H](C1)[C@H]1CC[C@@H]2N1S(=O)(=O)c1ccc2c(c1)OCO2 [Example 57, [(3aR,4R,7S,7aS)-8-(1,3-benzodioxol-5-ylsulfonyl)octahydro-2H-4,7-epiminoisoindol-2-yl](1H-1,2,3-triazol-5-yl)methanone]",267
3,"O=C(c1c[nH]nn1)N1C[C@@H]2[C@H](C1)[C@@H]1CC[C@H]2N1S(=O)(=O)c1cccc(Cl)c1C(F)(F)F [Example 17, [(3aR,4S,7R,7aS)-8-{[3-chloro-2-(trifluoromethyl)phenyl]sulfonyl}octahydro-2H-4,7-epiminoisoindol-2-yl](1H-1,2,3-triazol-4-yl)methanone]",51
4,"O=C(c1c[nH]nn1)N1C[C@@H]2[C@H](C1)[C@@H]1CC[C@H]2N1S(=O)(=O)c1cc(F)cc(F)c1 [Example 7, {(3aR,4S,7R,7aS)-8-[(3,5-difluorophenyl)sulfonyl]octahydro-2H-4,7-epiminoisoindol-2-yl}(1H-1,2,3-triazol-4-yl)methanone]",74
5,"O=C(c1c[nH]nn1)N1C[C@@H]2[C@H](C1)[C@@H]1CC[C@H]2N1S(=O)(=O)c1cccc(Cl)c1 [Example 3, {(3aR,4S,7R,7aS)-8-[(3-chlorophenyl)sulfonyl]octahydro-2H-4,7-epiminoisoindol-2-yl}(1H-1,2,3-triazol-4-yl)methanone]",20

# Further lines, results first:
row,IC50 [nM],SMILES
1,78,"O=C(c1cnn[nH]1)N1C[C@@H]2[C@H](C1)[C@H]1CC[C@@H]2N1S(=O)(=O)c1cccc2c1OCC2 [Example 62, [(3aR,4R,7S,7aS)-8-(2,3-dihydro-1-benzofuran-7-ylsulfonyl)octahydro-2H-4,7-epiminoisoindol-2-yl](1H-1,2,3-triazol-5-yl)methanone]"
2,45,"O=C(c1cnn[nH]1)N1C[C@@H]2[C@H](C1)[C@H]1CC[C@@H]2N1S(=O)(=O)c1ccccc1 [Example 20, [(3aR,4R,7S,7aS)-8-(phenylsulfonyl)octahydro-2H-4,7-epiminoisoindol-2-yl](1H-1,2,3-triazol-5-yl)methanone]"
3,4,"O=C(c1cnn[nH]1)N1C[C@@H]2[C@H](C1)[C@H]1CC[C@@H]2N1S(=O)(=O)c1ccccc1[N+](=O)[O-] [Example 35, {(3aR,4R,7S,7aS)-8-[(2-nitrophenyl)sulfonyl]octahydro-2H-4,7-epiminoisoindol-2-yl}(1H-1,2,3-triazol-5-yl)methanone]"
4,4,"O=C(c1cnn[nH]1)N1C[C@@H]2[C@H](C1)[C@H]1CC[C@@H]2N1S(=O)(=O)c1ccc(F)cc1Cl [Example 39, {(3aR,4R,7S,7aS)-8-[(2-chloro-4-fluorophenyl)sulfonyl]octahydro-2H-4,7-epiminoisoindol-2-yl}(1H-1,2,3-triazol-5-yl)methanone]"
5,58,"N#Cc1ccccc1S(=O)(=O)N1[C@@H]2CC[C@H]1[C@@H]1CN(C(=O)c3cnn[nH]3)C[C@@H]12 [Example 44, 2-{[(3aR,4R,7S,7aS)-2-(1H-1,2,3-triazol-5-ylcarbonyl)octahydro-1H-4,7-epiminoisoindol-8-yl]sulfonyl}benzonitrile]"
6,44,"O=C(c1c[nH]nn1)N1C[C@@H]2[C@H](C1)[C@@H]1CC[C@H]2N1S(=O)(=O)c1cc(Cl)cc(Cl)c1 [Example 4, {(3aR,4S,7R,7aS)-8-[(3,5-dichlorophenyl)sulfonyl]octahydro-2H-4,7-epiminoisoindol-2-yl}(1H-1,2,3-triazol-4-yl)methanone]"
7,7,"O=C(c1cnn[nH]1)N1C[C@@H]2[C@H](C1)[C@H]1CC[C@@H]2N1S(=O)(=O)c1cccc(Cl)c1Cl [Example 42, {(3aR,4R,7S,7aS)-8-[(2,3-dichlorophenyl)sulfonyl]octahydro-2H-4,7-epiminoisoindol-2-yl}(1H-1,2,3-triazol-5-yl)methanone]"

# Reference: patent US20200085791A1, “[(PHENYLSULFONYL)OCTAHYDRO-EPIMINOISOINDOL-YL](1H-1,2,3-TRIAZOL-5-YL)METHANONES” (Bayer Pharma Aktiengesellschaft, priority 2016, published 2020)
